According to PubChem BioAssay (NCI):
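All cell lines were grown in 96-well plates and treated with compound for 48 hours. GI50 marks 50% less growth. TGI: total growth inhibition.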

Columns and labels:
Test in all cases: NCI tumour cell line growth inhibition, 48 h
NCI-H522 lung = tested on: NCI-H522 lung
HL-60(TB) leukemia = tested on: HL-60(TB) leukemia
CCRF-CEM leukemia = tested on: CCRF-CEM leukemia
LOX IMVI melanoma = tested on: LOX IMVI melanoma
HCT-116 colon = tested on: HCT-116 colon
RXF 393 renal = tested on: RXF 393 renal
MCF7 breast = tested on: MCF7 breast
MDA-MB-231 breast = tested on: MDA-MB-231 breast
A498 renal = tested on: A498 renal
M14 melanoma = tested on: M14 melanoma

Row | SMILES | GI50 (NCI-H522 lung) [µM] | TGI (NCI-H522 lung) [µM] | GI50 (HL-60(TB) leukemia) [µM] | TGI (HL-60(TB) leukemia) [µM] | GI50 (CCRF-CEM leukemia) [µM] | TGI (CCRF-CEM leukemia) [µM] | GI50 (LOX IMVI melanoma) [µM] | TGI (LOX IMVI melanoma) [µM] | GI50 (HCT-116 colon) [µM] | TGI (HCT-116 colon) [µM] | GI50 (RXF 393 renal) [µM] | TGI (RXF 393 renal) [µM] | GI50 (MCF7 breast) [µM] | TGI (MCF7 breast) [µM] | GI50 (MDA-MB-231 breast) [µM] | TGI (MDA-MB-231 breast) [µM] | GI50 (A498 renal) [µM] | TGI (A498 renal) [µM] | GI50 (M14 melanoma) [µM] | TGI (M14 melanoma) [µM]
1 | COc1cc(CSc2nc3ccc(Cl)cc3c(=O)n2Cc2ccccc2)cc(OC)c1OC | 0.652 | 4.54 | 4.11 | > 100 | 3.6 | > 100 | 5.97 | > 100 | 3.72 | > 100 | 3.15 | 13.4 | 1.34 | 45.5 | 5.34 | > 100 | 1.89 | 8.2 | 4.26 | > 100
2 | Cc1ccc(/C(=N/NS(=O)(=O)c2cc(C)c(Cl)cc2Cl)Sc2cc(Cl)c(C)cc2S(N)(=O)=O)cc1 | > 100 | > 100 | 70 | > 100 | > 100 | > 100 | > 100 | > 100 | > 100 | > 100 | 90.9 | > 100 | > 100 | > 100 | > 100 | > 100 | > 100 | > 100 | > 100 | > 100
3 | NC(=O)c1cn(C2CC(O)C(CO)O2)c2ncnc(N)c12 (stereo not given) | 4.27 | 16.2 | 2.73 | 20 | 0.0888 | > 100 | 1.2 | 4.43 | 4.1 | > 100 | 2.08 | 13.9 | 0.376 | 13.9 | 3.26 | 21.2 | 1.97 | 7.93 | 3.12 | 22.6
4 | CC1(C)C(=O)/C=C\C(=O)C(C)(C)C2=CC=C(O2)C(C)(C)C(=O)C(Br)C(Br)C(=O)C(C)(C)C2=CC=C1O2 (stereo not given) | – | 59.6 | – | 18.1 | – | 11.2 | – | > 59.6 | – | 65.6 | – | > 83.8 | – | > 100 | – | > 86.7 | – | > 100 | – | > 87
5 | O=C1CN=C(c2ccc[nH]2)c2cc(Cl)ccc2N1 | 25.2 | > 100 | 4.16 | > 100 | 30.6 | > 100 | 17.9 | > 100 | 13 | > 100 | > 100 | > 100 | > 100 | > 100 | > 100 | > 100 | > 100 | > 100 | > 100 | > 100
6 | N#Cc1c(N)nc2c(c1-c1ccc(Cl)cc1)COc1ccc(F)cc1-2 | 23 | 59.5 | 26.5 | 53.4 | 44.2 | > 100 | 18.4 | 40.2 | 36.8 | > 100 | 20.3 | > 100 | 17.9 | > 100 | 11.9 | 51.8 | 22.3 | 52.3 | 29.8 | 96.1
7 | OCc1ccc(-c2nc(-c3ccc4c(c3)OCO4)c(-c3ccccn3)[nH]2)cc1 | > 25 | > 25 | > 25 | > 25 | > 25 | > 25 | 19 | > 25 | > 25 | > 25 | > 16.5 | > 25 | > 25 | > 25 | 10.2 | > 25 | > 25 | > 25 | > 25 | > 25
8 | CC(C)(C)c1cc(C[P+](c2ccccc2)(c2ccccc2)c2ccccc2)cc(C(C)(C)C)c1O | 0.33 | 1.91 | 0.22 | 0.682 | 0.545 | 5.33 | 0.457 | 1.89 | 0.275 | 10.2 | 1 | 4.67 | 0.27 | 4.04 | 0.473 | 2.84 | 0.451 | 3.69 | 0.398 | 3.53
9 | CCOC(=O)c1c(NN2CCN(CC(F)(F)F)CC2)oc(/C=C2\C=Nc3ncccc32)c1O | 1.05 | 11.1 | 1.85 | 4.67 | 6.81 | > 100 | 2.28 | 11.8 | 2.09 | 17.7 | 1.2 | 4.19 | 6.37 | 30.5 | 6.72 | 32.4 | 3.62 | 9.62 | 4.77 | 24.4
10 | Nc1nc(Sc2ccc([N+](=O)[O-])c3nonc23)c2ncn(C3OC(CO)C(O)C3O)c2n1 (stereo not given) | 0.64 | 14.2 | 3.7 | 23.5 | 0.198 | 6.65 | 0.221 | 2.76 | 0.428 | 13.6 | 10.4 | > 62.5 | 0.373 | 13.6 | 0.549 | 14.8 | 2.28 | 14 | 0.456 | 8.15
11 | CCn1nc(C2CCN(C(=O)CCO)CC2)nc1-c1cnc(N)c(-c2nnc(C(C)(C)C)o2)n1 | 15.3 | 63.5 | 0.263 | 97.5 | 18.2 | > 100 | 3.2 | 19.8 | 18.8 | 58.7 | 2.45 | 20.9 | 0.375 | > 100 | 15.1 | 68.2 | 0.617 | 5.12 | 27.7 | > 100
12 | O=C(Nc1ccc(I)cc1F)c1cc(Br)ccc1O | 0.348 | 4.44 | 0.472 | 3.5 | 1.01 | 19.5 | 0.474 | 2.75 | 0.411 | 1.96 | 0.778 | 3.6 | 0.78 | 7.76 | 0.457 | 4.73 | 0.175 | 0.63 | 0.603 | 4.49
